According to US20190194279A1, “Wound Healing Peptide” (James Cook University, priority 2016, published 2019):
“Also recorded” adds a separate entry of the source. Where no end group is shown, it is not given here.

Key:
[1] = system: H69 cells; assay: Cell proliferation monitoring in real time using xCELLigence (Example 2, 200 nM, 48 h); assay type: cell-based, human; settings: 200 nM peptide
Experimental: H69 cell line, non-malignant cholangiocyte cell line was obtained from Dr. Gregory J. Gores, Mayo Clinic, Rochester, Minn.^34. H69 cells were grown and maintained as previously described^34 in DMEM/F12 (Life Technologies) containing 1× antibiotic/antimycotic and 15 mM HEPES, supplemented with 10% fetal bovine serum (FBS) (Gibco, Scotland) at 37 C and 5% incubator. Cell proliferation assays were performed with modified DMEM/F12 media supplemented with 0.5% FBS and particular hormone and growth factors in a certain concentration range as listed in the previous study^34.
Proliferation study in real time was performed using xCELLigence SP system (ACEA Biosciences) as described previously^34. H69 cells were plated into a 96-well xCELLigence E-plate (ACEA Biosciences) at a density of 2000 cells/well; then placed in the xCELLigence system positioned in a 5% CO2 incubator at 37° C. and monitored overnight^47. Then, the complete media was replaced with 180 μl of starvation media (modified DMEM/F12 media supplemented with […] as described previously^34) and incubated for at least 6 hour. Treatments were added to each well in a total volume of 20 μl to provide 200 nM final concentrations. […] Cell proliferation rate was calculated as the relative numbers of treated cells compared to control cells over time (48 hours in culture). […] Each treatment was measured in quadruplicate.

[2] = system: skin-deep wound on the crown of the head; assay type: in vivo, BALB/c mice; settings: mouse; for day 4 wound healing relative to controls, result in words (Example 3): 56 pmoles topical daily days 0-4, relative to peptide control
Experimental: These studies were conducted with the approval of the James Cook University Small Animal Ethics Committee, applications A1806 and A2204, as described^6. Briefly, 4-5 female BALB/c mice per group were anesthetized (intraperitoneal xylazine 16 mg/kg; ketamine 80 mg/kg), after which a skin-deep wound on the crown of the head was inflicted using a 5 mm biopsy punch (Zivic instruments). […] Wounds were photographed daily and after blinding treatment groups the area of the lesion was measured with ImageJ software and plotted as percent of wound closure from original wound images. […] Each mouse wounding study was conducted at least twice to provide reproducibility.
Day 4 wound healing were assessed using peptides as described herein (Ov-GRN-1, Ov-GRN1-35, Ov-GRN8-38, Ov-GRN12-34, Ov-GRN12-35_3s, GRN24-3ala, GRN24-P2A, GRN24-P4A, and GRN27sps).

[3] = system: H69 human cholangiocytes; assay: Cell proliferation monitoring in real time using xCELLigence (Example 1, day 4); assay type: cell-based; settings: for increase in cell proliferation over peptide controls: at 400 nM; for cell proliferation, result in words: concentrations tested 10 nM-2 μM
Excerpt: Mammalian Cell Culture The non-malignant cholangiocyte cell line H69 is a SV40-transformed human bile duct epithelial cell line derived from human liver, kindly provided by Dr. Gregory J. Gores, Mayo Clinic, Rochester, Minn. H69 cells^23, 29, 30 were maintained in T75 cm^2 vented flasks (Corning) as monolayers as described^31 with minor modifications. Cells were maintained with regular splitting using 0.25% trypsin (Life Technologies) every 2-5 days in complete media [RPMI (Sigma) with growth factor-supplemented specialist complete media^30 [DMEM/F12 with high glucose, 10% FCS, 1×antibiotic/antimycotic, 25 μg/ml adenine, 5 μg/ml insulin, 1 μg/ml epinephrine, 8.3 μg/ml holo-transferrin, 0.62 μg/ml, hydrocortisone, 13.6 ng/ml T3 and 10 ng/ml EGF—Life Technologies]. Low nutrient media for cell proliferation assays was 5% complete media, i.e. 0.5% FCS and 1/20th of the growth factor concentrations listed above for complete media. The identities (human-derived) of the cell line were confirmed with […] (STR) analysis in January 2015 (15/15 positive loci across 2 alleles) and mycoplasma free at the DNA Diagnostics Centre (DDC)-medical (U.S.A.), accredited/certified by CAP, ISO/IEC 17025:2005 through ACLASS.
Cell proliferation monitoring in real time using xCELLigence Cells were seeded at 1,500 cells/well in 180 μl complete media (above) in E-plates (ACEA Biosciences) and grown overnight while monitored with an xCELLigence SP system (ACEA Biosciences) which monitors cellular events in real time by measuring electrical impedance across interdigitated gold micro-electrodes integrated into the base of tissue culture plates^32. Cells were washed three times with PBS prior to addition of 180 μl of low nutrient media (above) and incubated for a minimum of 6 h before further treatment. Treatments were prepared at 10× concentration and added to each well in a total volume of 20 μl. The xCELLigence system recorded cell indexes at intervals of one hour for 5-6 days following treatment. Readings for the cell index were normalized prior to treatment and cell proliferation ratios were determined from biological quadruplicates and represent the relative numbers of cells compared to control cells at day 4. Comparisons of induction of cell proliferation in response to treatments were accomplished using two-way ANOVA test with Dunnett's multiple comparison correction, using GraphPad Prism 6.02.

In the case of CADAVYTCRAGQTCCRGLHGYGCC [GRN3Ala], the “effect on cell proliferation compared to the control peptide, result in words” value [1] is reported as “did not have statistically significant effect” and the “effect on cell proliferation compared to the control peptide, result in words” value ([1]; listed as SEQ ID NO:9) is reported as “did not enhance cell proliferation”.

For CADPVYTCRPGQTCCRGLHGYGCC [GRN24P2A], the “proliferation rate relative to the control peptide” value [1] was 131.7%.

In the case of CPDAVYTCRPGQTCCRGLHGYGCC [P4A], the “proliferation rate relative to the control peptide” value [1] is reported as 141.6%.

For CPDPVYTCRAGQTCCRGLHGYGCC [P10A], the “proliferation rate relative to the control peptide” value [1] was 131.4%.

With “CPDPVYTCRPGQTCCRGLHGYGCC [Ov-GRN12-35_3s]” the “wound healing activity in vivo compared with the other Ov-GRN-1 peptides, in words” value [2] was “no more active in vivo than the other Ov-GRN-1 peptides”, the “day 4 wound healing relative to controls, result in words (Example 3)” value (“day 4 wound healing relative to controls” below) [2] was “significant increases in wound healing” and the “increase in cell proliferation over peptide controls” value [3] was 26%. For the same substance, the “cell proliferation, result in words” value [3] was “most potent peptide in the cell proliferation assay”, the “increase in cell growth compared to control peptide” value ([3]; final concentration of 2 (unit not given), day 4) was 41% and the “final concentrations with significantly increased cell proliferation (p<0.05)” value ([3]; four days after single application) was > 15 nM.

“Ov-GRN1-35: truncated Ov-GRN-1 peptide, residues 1-35, four cysteines, two disulfide bonds, Cys IV and Cys VI replaced with alanine (MDTLQPIRSPSCPDPVYTCRPGQTCARGLHGYGCA; disulfide (positions not given here))” was tested, and the “day 4 wound healing relative to controls” value [2] was “significant increases in wound healing” and the “increase in cell proliferation over peptide controls” value [3] was 9%.

In the case of “Ov-GRN8-38: truncated Ov-GRN-1 peptide, residues 8-38, two disulfide bonds (RSPSCPDPVYTCRPGQTCARGLHGYGCAPMD; disulfide (positions not given here))”, the “day 4 wound healing relative to controls” value [2] is reported as “significant increases in wound healing”.

For “Ov-GRN12-34: minimal Ov-GRN-1 sequence that contains the four cysteine residues, two disulfide bonds (CPDPVYTCRPGQTCARGLHGYGC; disulfide (positions not given here))”, the “day 4 wound healing relative to controls” value [2] was “significant increases in wound healing”.

For “carp granulin1-30: N-terminal 30 residues of carp granulin-1 with Cys IV and Cys VI replaced with alanine residues (VIHCDAATICPDGTTCALSPYGVWYCAPFS) [reference compound]”, the “maximum proliferation over peptide controls” value ([3]; at 32 nM) was 9% and the “cell proliferation, result in words” value [3] was “minimal cell proliferation (non-significant); also recorded: no substantial proliferation”.
